This passage reports IC50 results from patent US6967196B1, “Sulfonamide compounds and uses thereof” (Bristol-Myers Squibb Company, priority 1999, dated 2005).

Where a name gives a salt, the structure may show the parent alone.

The test system of one assay is amyloid β production in transfected H4 (human neuroglioma) cells stably expressing APP constructs. In words: In vitro cell-based assay of inhibitors of amyloid β production (ELISA). Particulars: Homo sapiens, 16 h, transfected H4 cells stably expressing APP; approximately 16 hours incubation; amyloid β in medium by ELISA; read-out: ACTIVITY (IC50, inhibition of amyloid β production). Put shortly:
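Plate wt/variant APP cells; ≥6 h later swap to medium + compound (10-100 μM screen); incubate ~16 h; sample medium; Aβ ELISA with C-terminal capture / N-terminal detection Abs; quantify vs Aβ standard curve.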
For orientation: ELISA stands for enzyme-linked immunosorbent assay.
The term IC50 denotes the point on the concentration scale where inhibition reaches its midpoint. For the molecule `C[C@H](c1ccccc1OCCCn1ccnc1)N(c1cccc(F)c1)S(=O)(=O)c1ccc(Cl)cc1` [Example 895, 4-chloro-N-(3-fluorophenyl)-N-((1R)-1-{2-[3-(1H-imidazol-1-yl)propoxy]phenyl}ethyl)benzenesulfonamide hydrochloride], the half-maximal inhibitory concentration (IC50) was greater than 500 nM.
Same read-out and setting: for `O=S(=O)(c1ccc(Cl)cc1)N(Cc1ccccc1OCCCN1CCCCC1)C1CCCCCC1` [Example 897, 4-chloro-N-cycloheptyl-N-{2-[3-(1-piperidinyl)propoxy]benzyl}benzenesulfonamide hydrochloride] the value was greater than 500 nM; for `CCCCOc1ccc(C(=O)N2CCCCC2CCOc2ccccc2CN(c2cc(F)ccc2F)S(=O)(=O)c2ccc(Cl)cc2)cc1` (stereo not shown) [Example 899, N-(2-{2-[1-(4-butoxybenzoyl)-2-piperidinyl]ethoxy}benzyl)-4-chloro-N-(2,5-difluorophenyl)benzenesulfonamide], greater than 500 nM.
The same measure, in the same setting: for `O=C(c1ccc(I)cc1)N1CCCCC1CCOc1ccccc1CN(c1cc(F)ccc1F)S(=O)(=O)c1ccc(Cl)cc1` (stereo not shown) [Example 901, 4-chloro-N-(2,5-difluorophenyl)-N-(2-{2-[1-(4-iodobenzoyl)-2-piperidinyl]ethoxy}benzyl)benzenesulfonamide] the value was greater than 500 nM.
On the same count and under the same terms, for `COc1ccccc1C(=O)N1CCCCC1CCOc1ccccc1CN(c1cc(F)ccc1F)S(=O)(=O)c1ccc(Cl)cc1` (stereo not shown) [Example 902, 4-chloro-N-(2,5-difluorophenyl)-N-(2-{2-[1-(2-methoxybenzoyl)-2-piperidinyl]ethoxy}benzyl)benzenesulfonamide] the value was greater than 500 nM; for `O=[N+]([O-])c1ccc(S(=O)(=O)CCCOc2ccccc2CN(c2cc(F)ccc2F)S(=O)(=O)c2ccc(Cl)cc2)cc1` [Example 905, 4-chloro-N-(2,5-difluorophenyl)-N-(2-{3-[(4-nitrophenyl)sulfonyl]propoxy}benzyl)benzenesulfonamide], greater than 500 nM.
With `O=S(=O)(c1ccc(Cl)cc1)N(Cc1ccccc1OCCCN1CCCCC1)c1cc(Cl)cnc1Cl` [Example 906, 4-chloro-N-(2,5-dichloro-3-pyridinyl)-N-{2-[3-(1-piperidinyl)propoxy]benzyl}benzenesulfonamide hydrochloride], the IC50 was greater than 500 nM.
Same read-out and setting: with `C[C@H](c1ccccc1OCCCn1ccnc1)N(c1cc(F)ccc1F)S(=O)(=O)c1ccc(Cl)cc1` [Example 908, 4-chloro-N-(2,5-difluorophenyl)-N-((1R)-1-{2-[3-(1H-imidazol-1-yl)propoxy]phenyl}ethyl)benzenesulfonamide hydrochloride] the figure was greater than 500 nM.
Same read-out and setting: with `COc1cccc(C(=O)N2CCCCC2CCOc2ccccc2CN(c2cc(F)ccc2F)S(=O)(=O)c2ccc(Cl)cc2)c1` (stereo not shown) [Example 909, 4-chloro-N-(2,5-difluorophenyl)-N-(2-{2-[1-(3-methoxybenzoyl)-2-piperidinyl]ethoxy}benzyl)benzenesulfonamide] the figure was greater than 500 nM.
On the same count and under the same terms, with `CSCCCc1cc(F)ccc1[C@@H](C)N(c1cc(F)ccc1F)S(=O)(=O)c1ccc(SC)cc1` [Example 912, N-(2,5-difluorophenyl)-N-((1R)-1-{4-fluoro-2-[3-(methylsulfanyl)propyl]phenyl}ethyl)-4-(methylsulfanyl)benzenesulfonamide] the figure was greater than 500 nM.
`O=S(=O)(c1ccc(Cl)cc1)N(Cc1ccccc1OCCCN1CCCC(O)C1)c1ccccc1` (stereo not shown) [Example 915, 4-chloro-N-{2-[3-(3-hydroxy-1-piperidinyl)propoxy]benzyl}-N-phenylbenzenesulfonamide hydrochloride]: the IC50 is greater than 500 nM.
On the same count and under the same terms, with `O=C1c2ccccc2C(=O)N1CCCOc1ccccc1CN(c1cc(F)ccc1F)S(=O)(=O)c1ccc(Cl)cc1` [Example 916, 4-chloro-N-(2,5-difluorophenyl)-N-{2-[3-(1,3-dioxo-1,3-dihydro-2H-isoindol-2-yl)propoxy]benzyl}benzenesulfonamide] the figure was greater than 500 nM; with `CC(COc1ccccc1CN(c1ccccc1)S(=O)(=O)c1ccc(Cl)cc1)N1CCC1` (stereo not shown) [Example 918, N-{2-[2-(1-azetidinyl)propoxy]benzyl}-4-chloro-N-phenylbenzenesulfonamide hydrochloride], greater than 500 nM.
Consider `Cc1cccc(N(Cc2ccccc2OCCCN2CCCCC2)S(=O)(=O)c2ccc(Cl)cc2)c1` [Example 919, 4-chloro-N-(3-methylphenyl)-N-{2-[3-(1-piperidinyl)propoxy]benzyl}benzenesulfonamide hydrochloride], for which the IC50 was greater than 500 nM.
Same read-out and setting: with `O=C(c1ccc2c(c1)OCO2)N1CCCCC1CCOc1ccccc1CN(c1cc(F)ccc1F)S(=O)(=O)c1ccc(Cl)cc1` (stereo not shown) [Example 921, N-(2-{2-[1-(1,3-benzodioxol-5-ylcarbonyl)-2-piperidinyl]ethoxy}benzyl)-4-chloro-N-(2,5-difluorophenyl)benzenesulfonamide] the figure was greater than 500 nM.
Turning to `O=S(=O)(c1ccc(Cl)cc1)N(Cc1ccccc1OCCCN1CCC(CO)CC1)c1ccccc1` [Example 922, 4-chloro-N-(2-{3-[4-(hydroxymethyl)-1-piperidinyl]propoxy}benzyl)-N-phenylbenzenesulfonamide hydrochloride], the IC50 was greater than 500 nM.
As for `CSc1ccccc1N(Cc1ccccc1OCCCN1CCCCC1)S(=O)(=O)c1ccc(Cl)cc1` [Example 924, 4-chloro-N-[2-(methylsulfanyl)phenyl]-N-{2-[3-(1-piperidinyl)propoxy]benzyl}benzenesulfonamide hydrochloride], the IC50 was greater than 500 nM.
Same read-out and setting: for `CC1CC(C)CN(CCCOc2ccccc2CN(c2ccccc2)S(=O)(=O)c2ccc(Cl)cc2)C1` (stereo not shown) [Example 926, 4-chloro-N-{2-[3-(3,5-dimethyl-1-piperidinyl)propoxy]benzyl}-N-phenylbenzenesulfonamide hydrochloride] the value was greater than 500 nM; for `O=S(=O)(c1ccc(Cl)cc1)N(Cc1ccccc1OCCC1CCCCN1Cc1cccc(F)c1F)c1cc(F)ccc1F` (stereo not shown) [Example 933, 4-chloro-N-(2-{2-[1-(2,3-difluorobenzyl)-2-piperidinyl]ethoxy}benzyl)-N-(2,5-difluorophenyl)benzenesulfonamide], greater than 500 nM; for `C[C@@H](Oc1ccc(Cl)cc1N(C)S(=O)(=O)c1ccc(Cl)cc1)c1ccc(F)cc1CCCC(=O)O` [Example 935, 4-[2-((1R)-1-{4-chloro-2-[[(4-chlorophenyl)sulfonyl](methyl)amino]phenoxy}ethyl)-5-fluorophenyl]butanoic acid], greater than 500 nM.
Still for that read-out and setting: with `CCSCCCc1cc(F)ccc1[C@@H](C)N(c1cc(F)ccc1F)S(=O)(=O)c1ccc(SCC)cc1` [Example 936, N-(2,5-difluorophenyl)-4-(ethylsulfanyl)-N-((1R)-1-{2-[3-(ethylsulfanyl)propyl]-4-fluorophenyl}ethyl)benzenesulfonamide] the figure was greater than 500 nM; with `O=S(=O)(c1ccc(Cl)cc1)N(Cc1ccccc1OCCCN1CCSCC1)c1ccccc1` [Example 937, 4-chloro-N-phenyl-N-{2-[3-(4-thiomorpholinyl)propoxy]benzyl}benzenesulfonamide hydrochloride], greater than 500 nM.
Still for that read-out and setting: for `COc1cc(C(=O)N2CCCCC2CCOc2ccccc2CN(c2cc(F)ccc2F)S(=O)(=O)c2ccc(Cl)cc2)cc(OC)c1OC` (stereo not shown) [Example 938, 4-chloro-N-(2,5-difluorophenyl)-N-(2-{2-[1-(3,4,5-trimethoxybenzoyl)-2-piperidinyl]ethoxy}benzyl)benzenesulfonamide] the value was greater than 500 nM; for `O=C(c1ccccc1Br)N1CCCCC1CCOc1ccccc1CN(c1cc(F)ccc1F)S(=O)(=O)c1ccc(Cl)cc1` (stereo not shown) [Example 942, N-(2-{2-[1-(2-bromobenzoyl)-2-piperidinyl]ethoxy}benzyl)-4-chloro-N-(2,5-difluorophenyl)benzenesulfonamide], greater than 500 nM; for `O=S(=O)(c1ccc(Cl)cc1)N(Cc1ccccc1OCCCN1CCNCC1)c1ccccc1` [Example 944, 4-chloro-N-phenyl-N-{2-[3-(1-piperazinyl)propoxy]benzyl}benzenesulfonamide dihydrochloride], greater than 500 nM.
In the case of `O=S(=O)(c1ccc(Cl)cc1)N(Cc1cccnc1)Cc1ccccc1OCCCN1CCCCC1` [Example 945, 4-chloro-N-{2-[3-(1-piperidinyl)propoxy]benzyl}-N-(3-pyridinylmethyl)benzenesulfonamide hydrochloride], the 50% inhibitory concentration (IC50) is greater than 500 nM.

The assay is the same for the next values; noted with them: Homo sapiens; transfected H4 cells stably expressing APP; approximately 16 hours incubation; amyloid β in medium by ELISA; read-out: ACTIVITY (IC50, inhibition of amyloid β production).
For the molecule `CN1C2CCC1[C@@H](COc1ccccc1CN(c1ccccc1)S(=O)(=O)c1ccc(Cl)cc1)C2` (stereo partly drawn) [Example 941, 4-chloro-N-(2-{[(2S)-7-methyl-7-azabicyclo[2.2.1]hept-2-yl]methoxy}benzyl)-N-phenylbenzenesulfonamide hydrochloride], the IC50 is greater than 500 nM.

The same assay, now with this note: transfected H4 cells stably expressing APP; approximately 16 hours incubation; amyloid β in medium by ELISA; read-out: ACTIVITY (IC50, inhibition of amyloid β production).
For the molecule `O=C(OC[C@H](c1ccccc1)N(c1cc(F)ccc1F)S(=O)(=O)c1ccc(Cl)cc1)c1ccncc1` [Example 904, (2S)-2-{[(4-chlorophenyl)sulfonyl]-2,5-difluoroanilino}-2-henylethyl isonicotinate], the IC50 was greater than 500 nM.
Regarding `O=C(/C=C/c1ccccc1CN(c1ccccc1)S(=O)(=O)c1ccc(Cl)cc1)N1CCCC1` [Example 923], the IC50 was greater than 500 nM.
The same measure, in the same setting: with `CC(C)CC(C)C(=O)N(C)CCOc1ccccc1C(C)N(c1cc(F)ccc1F)S(=O)(=O)c1ccc(Cl)cc1` (stereo not shown) [Example 930, N-{2-[2-(1-{[(4-chlorophenyl)sulfonyl]-2,5-difluoroanilino}ethyl)phenoxy]ethyl}-N,2,4-trimethylpentamide] the figure was greater than 500 nM.
On the same count and under the same terms, with `C[C@H](c1ccccc1CN1CCCCC1)N(c1cc(F)ccc1F)S(=O)(=O)c1ccc(Cl)cc1` [Example 939, 4-chloro-N-(2,5-difluorophenyl)-N-{(1R)-1-[2-(1-piperidinylmethyl)phenyl]ethyl}benzenesulfonamide hydrochloride] the figure was greater than 500 nM.
